Data as given in ChEMBL document CHEMBL5247598 (Eur J Med Chem, 2022).
The source made the active and inactive calls. The rule behind the calls is not given here.

What was measured:
NCI/ADR-RES [1] = assay: Antiproliferative activity against human multidrug resistant NCI-ADR-RES cells overexpressing P-gp assessed as reduction in cell viability incubated for 48 hrs by MTT assay; type: functional, cell-based
NCI-ADR-RES [2] = assay: Inhibition of PI3K/AKT signaling pathway in human NCI-ADR-RES cells assessed as increase in cleaved PARP level at 3 uM incubated for 24 to 48 hrs in presence of doxorubicin by Western blot analysis; type: cell-based; conditions: time 24-48 hrs
NCI/ADR-RES [3] = assay: Induction of apoptosis in human NCI-ADR-RES cells assessed as early apoptotic cells at 3 uM incubated for 24 hrs by Annexin V-FITC and DAPI staining based flow cytometry (Rvb= 0.89 %); type: functional
NCI/ADR-RES [4] = assay: Induction of apoptosis in human NCI-ADR-RES cells assessed as early apoptotic cells at 3 uM incubated for 48 hrs by Annexin V-FITC and DAPI staining based flow cytometry (Rvb= 0.89 %); type: functional
L02 = assay: Cytotoxicity against human L02 cells assessed as inhibition of cell growth at 50 uM incubated for 48 hrs by MTT assay; type: toxicity, cell-based; conditions: l02, 48 h
NCI/ADR-RES [5] = assay: Induction of apoptosis in human NCI-ADR-RES cells assessed as late apoptotic cells at 8 uM incubated for 48 hrs in presence of doxorubicin by Annexin V-FITC and DAPI staining based flow cytometry (Rvb= 0.66 %); type: functional
NCI-ADR-RES [6] = assay: Inhibition of PI3K/AKT signaling pathway in human NCI-ADR-RES cells assessed as decrease in PI3K phosphorylation at 3 uM incubated for 24 to 48 hrs in presence of doxorubicin by Western blot analysis; type: cell-based; conditions: time 24-48 hrs
NCI-ADR-RES [7] = assay: Inhibition of PI3K/AKT signaling pathway in human NCI-ADR-RES cells assessed as changes in caspase-6 level at 3 uM incubated for 24 to 48 hrs in presence of doxorubicin by Western blot analysis; type: cell-based; conditions: time 24-48 hrs
NCI/ADR-RES [8] = assay: Induction of apoptosis in human NCI-ADR-RES cells assessed as necrotic cells at 8 uM incubated for 24 hrs in presence of doxorubicin by Annexin V-FITC and DAPI staining based flow cytometry (Rvb= 0.55 %); type: functional
NCI/ADR-RES [9] = assay: Induction of apoptosis in human NCI-ADR-RES cells assessed as viable cells at 8 uM incubated for 24 hrs in presence of doxorubicin by Annexin V-FITC and DAPI staining based flow cytometry (Rvb= 97.9 %); type: functional; conditions: read-out: Activity
MCF7 = assay: Antiproliferative activity against human MCF7 cells assessed as reduction in cell viability incubated for 48 hrs by MTT assay; type: functional, cell-based; conditions: MCF7, 48 h, read-out: IC50
HCT-8 [10] = assay: Antiproliferative activity against human HCT-8 cells assessed as inhibition of cell growth at 50 uM incubated for 48 hrs by MTT assay; type: functional, cell-based
NCI/ADR-RES [11] = assay: Induction of apoptosis in human NCI-ADR-RES cells assessed as viable cells at 8 uM incubated for 48 hrs in presence of doxorubicin by Annexin V-FITC and DAPI staining based flow cytometry (Rvb= 97.9 %); type: functional; conditions: read-out: Activity
NCI/ADR-RES [12] = assay: Induction of apoptosis in human NCI-ADR-RES cells assessed as late apoptotic cells at 3 uM incubated for 24 hrs by Annexin V-FITC and DAPI staining based flow cytometry (Rvb= 0.66 %); type: functional
NCI/ADR-RES [13] = assay: Antiproliferative activity against human multidrug resistant NCI-ADR-RES cells assessed as inhibition of cell growth at 50 uM incubated for 48 hrs by MTT assay; type: functional, cell-based
NCI/ADR-RES [14] = assay: Reversal of P-gp-mediated multidrug resistance in human NCI-ADR-RES cells assessed as potentiation of doxorubicin-induced cytotoxicity incubated for 48 hrs by MTT assay; type: functional, cell-based
HCT-8 [15] = assay: Antiproliferative activity against human Taxol resistant HCT-8 cells assessed as inhibition of cell growth at 50 uM incubated for 48 hrs by MTT assay; type: functional, cell-based
NCI/ADR-RES [16] = assay: Induction of apoptosis in human NCI-ADR-RES cells assessed as necrotic cells at 8 uM incubated for 48 hrs in presence of doxorubicin by Annexin V-FITC and DAPI staining based flow cytometry (Rvb= 0.55 %); type: functional
[17] = Cytotoxicity against mouse MPC-5 cells assessed as inhibition of cell growth at 50 uM incubated for 48 hrs by MTT assay; type: toxicity, cell-based; conditions: mpc-5, 48 h
NCI/ADR-RES [18] = assay: Induction of apoptosis in human NCI-ADR-RES cells assessed as early apoptotic cells at 8 uM incubated for 24 hrs in presence of doxorubicin by Annexin V-FITC and DAPI staining based flow cytometry (Rvb= 0.89 %); type: functional
NCI/ADR-RES [19] = assay: Induction of apoptosis in human NCI-ADR-RES cells assessed as viable cells at 3 uM incubated for 24 hrs by Annexin V-FITC and DAPI staining based flow cytometry (Rvb= 97.9 %); type: functional; conditions: read-out: Activity
NCI/ADR-RES [20] = assay: Reversal of P-gp-mediated multidrug resistance in human NCI-ADR-RES cells assessed as change in ABCB1 expression level at 1 to 10 uM incubated for 24 hrs by Western blot analysis; type: functional, cell-based; conditions: dose 1-10 µM
P-gp = assay: Therapeutic index, ratio of IC50 for cytotoxicity against human HEK293T cells to EC50 for reversal of P-gp-mediated multidrug resistance in human NCI-ADR-RES cells; type: toxicity, cell-based; conditions: read-out: Ratio IC50/EC50
HEK-293T = assay: Cytotoxicity against human HEK293T cells assessed as inhibition of cell growth at 50 uM incubated for 48 hrs by MTT assay; type: toxicity, cell-based
[21] = Cytotoxicity against human HEK293T cells assessed as reduction in cell viability incubated for 48 hrs by MTT assay; type: toxicity, cell-based, HEK-293T
NCI-ADR-RES [22] = assay: Inhibition of PI3K/AKT signaling pathway in human NCI-ADR-RES cells assessed as decrease in Bcl-xL level at 3 uM incubated for 24 to 48 hrs in presence of doxorubicin by Western blot analysis; type: cell-based; conditions: time 24-48 hrs
NCI/ADR-RES [23] = assay: Reversal fold, ratio of doxorubicin IC50 to doxorubicin IC50 in presence of 10 uM test compound for reversal of P-gp-mediated multidrug resistance in human NCI-ADR-RES cells incubated for 48 hrs by MTT assay; type: functional
NCI-ADR-RES [24] = assay: Inhibition of PI3K/AKT signaling pathway in human NCI-ADR-RES cells assessed as increase in Caspase-3 level at 3 uM incubated for 24 to 48 hrs in presence of doxorubicin by Western blot analysis; type: cell-based; conditions: time 24-48 hrs
NCI-ADR-RES [25] = assay: Inhibition of PI3K/AKT signaling pathway in human NCI-ADR-RES cells assessed as decrease in AKT phosphorylation at 3 uM incubated for 24 to 48 hrs in presence of doxorubicin by Western blot analysis; type: cell-based; conditions: time 24-48 hrs
NCI/ADR-RES [26] = assay: Induction of apoptosis in human NCI-ADR-RES cells assessed as viable cells at 3 uM incubated for 48 hrs by Annexin V-FITC and DAPI staining based flow cytometry (Rvb= 97.9 %); type: functional; conditions: read-out: Activity
A549/TR = assay: Antiproliferative activity against human Taxol resistant A549 cells assessed as inhibition of cell growth at 50 uM incubated for 48 hrs by MTT assay; type: functional, cell-based
NCI/ADR-RES [27] = assay: Reversal of P-gp-mediated multidrug resistance in human NCI-ADR-RES cells assessed as change in ABCB1 expression level at 1 to 10 uM incubated for 48 hrs by Western blot analysis; type: functional, cell-based; conditions: dose 1-10 µM

IC50 (MCF7): > 100 µM
SMILES: C=C1[C@H](OC(C)=O)[C@@H](OC(C)=O)[C@@H](OC(C)=O)C(C)(C)/C=C/[C@H](C)[C@H](OC(=O)c2ccccc2)[C@@]2(O)C[C@@](C)(OC(=O)C(C)(C)C)[C@H](OC(C)=O)[C@@H]2[C@H]1OCC(C)C
IC50 (NCI/ADR-RES [1]): > 100 µM
inhibition (NCI-ADR-RES [2]): Active
Activity (NCI/ADR-RES [3]): 0.67%
Activity (NCI/ADR-RES [4]): 0.69%
Activity (L02): Non-Toxic
Activity (NCI/ADR-RES [5]): 8.03%
inhibition (NCI-ADR-RES [6]): Active
inhibition (NCI-ADR-RES [7]): inactive
Activity (NCI/ADR-RES [8]): 0.24%
viability at 8 µM (NCI/ADR-RES [9]): 87.1%
Activity (HCT-8 [10]): inactive
viability at 8 µM (NCI/ADR-RES [11]): 65%
Activity (NCI/ADR-RES [12]): 0.73%
Activity (NCI/ADR-RES [13]): inactive
EC50 (NCI/ADR-RES [14]): 0.182 µM
Activity (HCT-8 [15]): inactive
Activity (NCI/ADR-RES [16]): 10.7%
Activity [17]: Non-Toxic
Activity (NCI/ADR-RES [18]): 10.2%
viability at 3 µM (NCI/ADR-RES [19]): 97.5%
Activity (NCI/ADR-RES [20]): inactive
selectivity ratio (P-gp): 309
Activity (HEK-293T): Non-Toxic
IC50 at 48 h [21]: 56.3 µM
inhibition (NCI-ADR-RES [22]): Active
Ratio IC50 (NCI/ADR-RES [23]): 116.6
inhibition (NCI-ADR-RES [24]): Active
inhibition (NCI-ADR-RES [25]): Active
viability at 3 µM (NCI/ADR-RES [26]): 98.4%
Activity (A549/TR): inactive
Activity (NCI/ADR-RES [27]): inactive
